PMC4910235, “Selenophene and thiophene-core estrogen receptor ligands that inhibit motility and development of parasitic stages of Haemonchus contortus” (Parasites & Vectors, 2016)
“Also recorded” adds a separate entry of the source. Values belong to the compound of their own block, whether it stands above or below them.

What was measured:
[1] = test system: L4 stage of H. contortus; assay: Scanning electron microscopy of treated L4s; format: cell-based, Haemonchus contortus; settings: 100 μM, 24 h
Protocol: SEM was used to assess whether compounds that reduced motility by ≥ 70 % caused structural damage to the larval stages. The xL3s and L4s were cultivated as described previously. Compounds were diluted to a final concentration of 100 μM in LB*, and 50 μl were transferred to wells of a 96-well microculture plate; six wells were used for each treatment and for the negative control which contained LB* and 1 % methanol (AR1115-P2.5 L, RCI; Labscan Limited). The xL3s and L4s were resuspended in LB* at a density of ~6,000 per ml, and 50 μl were transferred into individual wells. Compounds were incubated with the larvae for 24 h at 38 °C and 10 % CO2. Following incubation, for each treatment, the larvae from each of the six wells were pooled into 1.5 ml Eppendorf tubes, washed 3 times in 0.9 % saline at 9,000 g and resuspended in 1 ml of phosphate-buffered saline (PBS). Subsequently, the larvae were fixed in 2.5 % glutaraldehyde in PBS for 2 h at room temperature, rinsed three times in PBS for 15 min, and then post-fixed in 1 % osmium tetroxide for 2 h at room temperature. Fixed larvae were rinsed again 3 times in PBS for 15 min. Then, aliquots of concentrated larvae (200 μl) were incubated on polyethyleneimine (PEI)-coated glass coverslips (pre-prepared by smearing 22 mm square glass coverslips with a 0.1 % solution of PEI and dried by heat under a cool flame). Following this incubation, the excess supernatant was removed, and the coverslips with adhered nematodes were dehydrated in increasing concentrations of ethanol (10, 30, 50, 70, 90 and 100 %) in water for 30 min. The coverslips were dried in a critical point dryer (EM CPD030, Leica, Wetzlar, Germany) and mounted on to aluminium stubs (25 mm) with double-sided carbon tabs. The coverslips were then coated with gold using a Xenosput sputter coater (Dynavac, Australia). The larvae on the coverslips were imaged using a field-emission scanning electron microscope (XL30 Philips, Netherlands) at 2.0 kV using a spot size of two; 12 representative images were taken of each sample.

[2] = biological target: T1, ERα (Homo sapiens, UniProt P03372); assay: 3×ERE-luciferase reporter gene assay in HEK 293 T cells, ERα; format: cell-based
T1 construct: expressed in transfected cells; host or cells: HEK 293 T
T1 sequence (P03372 1-595): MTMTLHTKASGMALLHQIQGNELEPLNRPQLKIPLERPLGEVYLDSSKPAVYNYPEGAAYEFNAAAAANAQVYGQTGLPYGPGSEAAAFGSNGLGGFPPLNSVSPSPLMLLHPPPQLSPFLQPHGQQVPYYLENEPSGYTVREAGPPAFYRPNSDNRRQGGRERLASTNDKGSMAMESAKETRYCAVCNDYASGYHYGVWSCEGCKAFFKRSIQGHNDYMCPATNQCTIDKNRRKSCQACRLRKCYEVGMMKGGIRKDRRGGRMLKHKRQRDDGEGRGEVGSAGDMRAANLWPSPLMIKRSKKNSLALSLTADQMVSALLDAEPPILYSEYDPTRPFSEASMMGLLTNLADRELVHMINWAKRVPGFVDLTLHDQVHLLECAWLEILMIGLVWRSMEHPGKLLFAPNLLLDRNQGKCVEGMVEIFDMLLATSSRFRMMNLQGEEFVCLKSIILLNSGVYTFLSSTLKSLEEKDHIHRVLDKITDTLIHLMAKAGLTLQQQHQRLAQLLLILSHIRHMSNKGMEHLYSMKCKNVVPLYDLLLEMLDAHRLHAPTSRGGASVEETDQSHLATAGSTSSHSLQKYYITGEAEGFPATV
Protocol: (§1) Cells in phenol red-free DMEM with 10 % FBS were plated. […] The next day, the cells were treated with increasing doses of ER ligands diluted in phenol red-free DMEM with 10 % FBS. After 24 h, luciferase activity was measured using the dual-luciferase reporter assay system (Promega, Fitchburg, USA) performed according to the manufacturer’s protocol.

[3] = biological target: T2, human ERα ligand binding domain (Homo sapiens, UniProt P03372); assay: Competitive fluorometric receptor-binding assay, ERα; settings: estradiol = 100 %; fluorescence polarisation, coumestrol tracer
T2 sequence (P03372 311-547 limits assumed): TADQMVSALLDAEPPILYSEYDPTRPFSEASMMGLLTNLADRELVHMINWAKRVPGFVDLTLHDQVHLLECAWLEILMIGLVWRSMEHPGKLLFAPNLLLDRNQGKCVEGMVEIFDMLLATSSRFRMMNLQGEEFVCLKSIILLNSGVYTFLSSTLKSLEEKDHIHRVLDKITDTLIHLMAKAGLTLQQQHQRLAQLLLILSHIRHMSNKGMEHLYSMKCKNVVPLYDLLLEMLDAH
Protocol: (§2) Relative binding affinities were determined by a competitive fluorometric binding assay, as described previously. Briefly, 40 nM fluorescence tracer (coumestrol, Sigma-Aldrich) and 0.8 μM purified human ERα or ERβ ligand binding domain were diluted in 100 mM potassium phosphate buffer (pH 7.4), containing 100 μg/ml bovine γ-globulin (Sigma-Aldrich), and an equal volume of test compound was added. Incubation was for 2 h at 25 °C. The fluorescence polarisation values were measured. […] The values given are the average ± range of two independent determinations. IC50 values were calculated using a published formula [29].

[4] = biological target: human ERβ ligand binding domain (Homo sapiens, UniProt Q92731); assay: Competitive fluorometric receptor-binding assay, ERβ; settings: estradiol = 100 %; fluorescence polarisation, coumestrol tracer
Protocol: as §2

[5] = biological target: T3, ERβ (Homo sapiens, UniProt Q92731); assay: 3×ERE-luciferase reporter gene assay in HEK 293 T cells, ERβ; format: cell-based
T3 construct: expressed in transfected cells; host or cells: HEK 293 T
Protocol: as §1

[6] = percentage of 10^-8 M 17β-estradiol, mean ± SD

T3 sequence (Q92731 whole entry): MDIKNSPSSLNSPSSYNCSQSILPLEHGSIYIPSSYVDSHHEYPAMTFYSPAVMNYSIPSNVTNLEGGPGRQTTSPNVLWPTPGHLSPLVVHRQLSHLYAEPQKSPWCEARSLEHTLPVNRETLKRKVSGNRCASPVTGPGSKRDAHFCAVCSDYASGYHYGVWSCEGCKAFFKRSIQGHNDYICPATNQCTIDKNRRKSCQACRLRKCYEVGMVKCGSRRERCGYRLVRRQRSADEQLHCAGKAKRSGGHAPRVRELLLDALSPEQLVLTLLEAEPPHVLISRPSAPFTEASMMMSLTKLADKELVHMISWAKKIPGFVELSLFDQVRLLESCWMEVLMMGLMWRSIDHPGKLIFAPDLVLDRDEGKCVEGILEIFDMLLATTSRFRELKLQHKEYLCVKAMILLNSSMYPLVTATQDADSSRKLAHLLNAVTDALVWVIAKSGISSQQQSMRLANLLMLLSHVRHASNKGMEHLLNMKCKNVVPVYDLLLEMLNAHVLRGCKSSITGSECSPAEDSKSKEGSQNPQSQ
Chain of human ERβ ligand binding domain (Q92731 264-498 limits assumed): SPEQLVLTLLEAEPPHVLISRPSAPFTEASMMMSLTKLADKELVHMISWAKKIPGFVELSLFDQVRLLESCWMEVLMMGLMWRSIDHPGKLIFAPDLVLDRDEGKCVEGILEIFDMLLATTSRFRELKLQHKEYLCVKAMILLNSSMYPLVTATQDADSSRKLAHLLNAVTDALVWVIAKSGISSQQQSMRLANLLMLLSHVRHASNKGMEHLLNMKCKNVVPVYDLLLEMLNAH

Structure (SMILES): C[C@](C#N)(COc1cc(C#N)ccc1C(F)(F)F)NC(=O)c1ccc(SC(F)(F)F)cc1 [Monepantel, reference compound]
- cuticle damage of L4s by SEM [1]: cuticle damage

Structure (SMILES): Oc1ccc(-c2cscc2-c2ccc(O)cc2Cl)c(Cl)c1 [MJ-17]
- cuticle damage of L4s by SEM [1]: distinct damage

- profile on ERα (agonist/antagonist) ([2]; luciferase reporter): super-agonist; also recorded: agonists
Structure (SMILES): Cc1cc(O)ccc1-c1ccc(-c2ccc(O)cc2F)s1 [MJ-22]
- cuticle damage of L4s by SEM [1]: distinct damage

Structure (SMILES): Oc1ccc(-c2ccc(-c3ccc(O)cc3Cl)[se]2)c(Cl)c1 [WZY-2]
- IC50 ([2]; against 10^-8 M E2, read-out: Antagonist mode ERα IC50): > 10 µM
- EC50 ([2]; doses up to 10^-5 M, read-out: Agonist mode ERα EC50): > 10 µM
- Agonist mode ERα Efficacy (%E2) [2, 6]: -21 ± 13 %E2
- Antagonist mode ERα Efficacy (%E2) [2, 6]: 73 ± 8 %E2
- relative binding affinity (RBA) ERα [3]: 6.11%
- cuticle damage of L4s by SEM [1]: distinct damage
- relative binding affinity (RBA) ERβ [4]: 12.7%
- IC50 ([5]; against 10^-8 M E2, read-out: Antagonist mode ERβ IC50): 3.02 µM
- EC50 ([5]; doses up to 10^-5 M, read-out: Agonist mode ERβ EC50): > 10 µM
- profile on ERβ (agonist/antagonist) ([5]; luciferase reporter): antagonist
- Antagonist mode ERβ Eff (%E2) [5, 6]: 13.9 ± 5.3 %E2

Structure (SMILES): CO/N=C1\C[C@]2(C[C@@H]3C[C@@H](C/C=C(\C)C[C@@H](C)/C=C/C=C4\CO[C@@H]5[C@H](O)C(C)=C[C@@H](C(=O)O3)[C@]45O)O2)O[C@H](/C(C)=C/C(C)C)[C@H]1C [Moxidectin, reference compound]
- cuticle damage of L4s by SEM [1]: did not induce any cuticle damage
